Results on one compound are retold here after article PMC12627232 (MedComm, 2025).

One may read the microsomal CLint as the capacity of the preparation to metabolise the compound, expressed as a volume cleared per time. Read a high microsomal CLint as rapid turnover. The term IC50 denotes the concentration that inhibits the measured activity by half. Low values mean inhibition by little substance, high ones a need for much substance.

SMILES strings stand for the structures.

A short description of data set [1]: In vitro metabolic assay, mouse liver microsomes. In kind it is in vitro ADME. The protocol:
Compounds were prepared in a working solution of 2 mg/mL with methanol. […]; Research Institute for Liver Disease (Shanghai) Co., Ltd) were mixed with NADPH (the final concentration is 4 mM), MgCl2 (the final concentration is 6 mM), and shaken at 37°C for 5 min. Then, compound solutions were added to the system and incubated for 0, 10, 20, 30, 60, 90, and 120 min at 37°C under shaking conditions. The mixture was quenched with cold acetonitrile and analyzed with a Shimadzu LC‐20AT system and a C18‐silica column (Thermo; 4.6 × 250 mm, 5 µm).
(In general: Liver microsomes are vesicles of endoplasmic reticulum, rich in cytochrome P450 enzymes.)

Data set [2] concerns Jurkat. The experiment in a line: CCK-8 antiproliferation assay. The data set is classed as cell-based. The following applies: Homo sapiens, 48 h treatment. The protocol:
(§1) Cell lines purchased from the Cell Bank of Type Culture Collection of the Chinese Academy of Sciences (Shanghai, China) were passaged after resuscitation. […] The third to tenth passages of cells were used for experiments. […] After incubation, 20 µL CCK‐8 solution (MeilunBio) was added. Two hours later, absorption was measured by a Varioskan plate at 450 nm. Inhibition curves and IC50 values were simulated and calculated using the log(inhibitor) versus response (three parameters) mode via GraphPad Prism software.

The test system of data set [3] is AGS. The data set is described as follows: CCK-8 antiproliferation assay. In kind it is cell-based. The following applies: Homo sapiens, 48 h treatment. On the procedure:
as §1

The subject of data set [4] is HL-60. The data set is described as follows: CCK-8 antiproliferation assay. The data set is classed as cell-based. The following applies: Homo sapiens, 48 h treatment. The protocol:
as §1
(In general: Formazan colour is commonly taken as a measure of viable cells.)

The subject of data set [5] is MCF-7. The experiment in a line: CCK-8 antiproliferation assay. The data set is classed as cell-based. The following applies: Homo sapiens, MCF7, 48 h treatment. The protocol: as §1
Data set [6] deals with PC-3. The data set is described as follows: CCK-8 antiproliferation assay. In kind it is cell-based. The following applies: Homo sapiens, 48 h treatment. On the procedure:
as §1

The test system of data set [7] is NCI-H929. The experiment in a line: CCK-8 antiproliferation assay. The data set is classed as cell-based. The following applies: Homo sapiens, 48 h treatment. The protocol:
as §1

Data set [8] relates to KM3. The experiment in a line: CCK-8 antiproliferation assay. The following applies: Homo sapiens, 48 h treatment. In kind it is cell-based. The protocol: as §1
Data set [9] concerns RPMI-8226. The experiment in a line: CCK-8 antiproliferation assay. The data set is classed as cell-based. The following applies: Homo sapiens, 48 h treatment. On the procedure: as §1
Data set [10] relates to MDA-MB-231 cells. The data set is described as follows: TUNEL assay. In kind it is cell-based, human. The following applies: MDA-MB-231, 5 µM, 24 h. On the procedure:
The TUNEL assay was performed with the one‐step TUNEL apoptosis kit (MeilunBio) according to the manual from the manufacturer. Briefly, cells (5 × 10^5 cells per plate) were seeded in confocal dishes and incubated with drugs for 24 h. The medium was removed, and cells were fixed with 4% polyoxymethylene solution for 30 min. Subsequently, cells were treated with 20 µg/mL protease K for 5 min and TUNEL working solution for 1 h at 37°C. Eventually, cells were captured with a Leica TCS SP8 super‐resolution laser scanning confocal microscope.

For `O=C(CCCCCCNC(=O)c1cc(OCCc2ccccc2)c2ccccc2n1)NO` [SDFZ-8], in data set [1] (mouse liver microsomes, read-out: half-life T 1/2 in mouse liver microsomes), the half-life came out at 12.3 min. For the same compound, the microsomal CLint in [1] (mouse, microsomes) is 56.3 µL/min/mg. Also, the IC50 in [2] was found to be 0.089 ± 0.001 µM; in data set [3] it was 0.56 ± 0.02 µM; in data set [4], 0.094 ± 0.004 µM; in data set [5], 1.96 ± 0.06 µM; in data set [6], 0.62 ± 0.07 µM; in [7], 0.1 ± 0.005 µM. Further, the IC50 in [8] came out at 0.1 ± 0.005 µM; in data set [9] it was 0.46 ± 0.03 µM. Further, in [10], the “TUNEL green fluorescence (apoptosis)” value was “higher intensity of green fluorescence compared with SAHA”.
